Measured values as given in ChEMBL document CHEMBL1201862, “PubChem BioAssay data set” (2004).
Active and inactive are the calls of the source.

Experiments:
[1] = biological target: T1, Zinc finger protein mex-5 (Caenorhabditis elegans, UniProt Q9XUB2); assay: MEX-5/TCR-2 RNA interaction inhibitors, dose response, biochemical, C. elegans, fluorescence polarization (AID 1960)
T1 sequence (Q9XUB2 whole entry): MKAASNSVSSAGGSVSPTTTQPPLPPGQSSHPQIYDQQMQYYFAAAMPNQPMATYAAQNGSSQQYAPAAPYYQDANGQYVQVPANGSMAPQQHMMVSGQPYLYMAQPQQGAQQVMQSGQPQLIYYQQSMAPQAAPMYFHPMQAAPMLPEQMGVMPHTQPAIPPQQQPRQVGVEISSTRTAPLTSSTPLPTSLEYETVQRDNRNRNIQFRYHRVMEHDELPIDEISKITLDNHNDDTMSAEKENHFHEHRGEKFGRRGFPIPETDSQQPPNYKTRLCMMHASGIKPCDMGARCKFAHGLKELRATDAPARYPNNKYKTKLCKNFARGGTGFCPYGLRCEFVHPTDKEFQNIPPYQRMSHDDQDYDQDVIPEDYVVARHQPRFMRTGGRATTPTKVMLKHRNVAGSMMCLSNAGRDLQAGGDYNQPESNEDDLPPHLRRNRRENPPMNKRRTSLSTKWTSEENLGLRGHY

[2] = biological target: T2, RNA-binding protein pos-1 (Caenorhabditis elegans, UniProt G5EF15); assay: inhibitors of POS-1/mex-3 RNA binding, dose response, biochemical, fluorescence polarization (AID 1964);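 also: purified POS-1 fused to maltose binding protein made in E. coli; potency of compounds blocking POS-1 binding to fluorescent RNA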
T2 sequence (G5EF15 whole entry): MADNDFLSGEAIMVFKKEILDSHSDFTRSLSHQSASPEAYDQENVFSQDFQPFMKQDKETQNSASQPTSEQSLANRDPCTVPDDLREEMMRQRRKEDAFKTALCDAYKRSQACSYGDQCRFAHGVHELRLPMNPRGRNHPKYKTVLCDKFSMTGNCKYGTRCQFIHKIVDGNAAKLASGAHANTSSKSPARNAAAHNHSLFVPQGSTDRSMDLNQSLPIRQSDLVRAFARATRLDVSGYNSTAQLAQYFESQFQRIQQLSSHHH

Leucine aminopeptidase = biological target: T3, Leucine aminopeptidase (Plasmodium falciparum 3D7, UniProt Q8IL11); assay: P. falciparum M17LAP inhibitors, primary screen, biochemical, fluorogenic H-Leu-NHMec substrate, 1536-well (AID 1619); type: functional
T3 sequence (Q8IL11 whole entry): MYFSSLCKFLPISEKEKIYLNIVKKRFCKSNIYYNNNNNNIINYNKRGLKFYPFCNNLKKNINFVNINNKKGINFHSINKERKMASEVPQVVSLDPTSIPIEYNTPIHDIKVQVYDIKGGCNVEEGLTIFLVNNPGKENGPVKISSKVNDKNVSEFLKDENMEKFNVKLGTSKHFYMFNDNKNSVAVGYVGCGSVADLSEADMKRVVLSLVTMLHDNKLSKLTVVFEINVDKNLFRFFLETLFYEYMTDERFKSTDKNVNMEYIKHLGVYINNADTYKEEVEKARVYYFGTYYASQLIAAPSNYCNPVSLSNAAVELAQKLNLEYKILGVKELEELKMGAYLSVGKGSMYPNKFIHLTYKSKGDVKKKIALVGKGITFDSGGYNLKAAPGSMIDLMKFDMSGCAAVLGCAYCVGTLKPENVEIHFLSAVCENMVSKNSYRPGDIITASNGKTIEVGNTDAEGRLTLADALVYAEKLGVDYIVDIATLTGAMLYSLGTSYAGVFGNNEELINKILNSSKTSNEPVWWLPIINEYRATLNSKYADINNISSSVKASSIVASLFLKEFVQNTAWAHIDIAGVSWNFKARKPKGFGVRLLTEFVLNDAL

[3] = P. falciparum Dd2 growth inhibitors, dose response, SYBR Green, cherry-picked samples (AID 1159567); type: functional, cell-based
Cytochrome P450 1A2 = biological target: T4, Cytochrome P450 1A2 (Homo sapiens, UniProt P05177);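 also: PubChem cytochrome P450 panel assay, CYP1A2 panel member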
T4 sequence (P05177 whole entry): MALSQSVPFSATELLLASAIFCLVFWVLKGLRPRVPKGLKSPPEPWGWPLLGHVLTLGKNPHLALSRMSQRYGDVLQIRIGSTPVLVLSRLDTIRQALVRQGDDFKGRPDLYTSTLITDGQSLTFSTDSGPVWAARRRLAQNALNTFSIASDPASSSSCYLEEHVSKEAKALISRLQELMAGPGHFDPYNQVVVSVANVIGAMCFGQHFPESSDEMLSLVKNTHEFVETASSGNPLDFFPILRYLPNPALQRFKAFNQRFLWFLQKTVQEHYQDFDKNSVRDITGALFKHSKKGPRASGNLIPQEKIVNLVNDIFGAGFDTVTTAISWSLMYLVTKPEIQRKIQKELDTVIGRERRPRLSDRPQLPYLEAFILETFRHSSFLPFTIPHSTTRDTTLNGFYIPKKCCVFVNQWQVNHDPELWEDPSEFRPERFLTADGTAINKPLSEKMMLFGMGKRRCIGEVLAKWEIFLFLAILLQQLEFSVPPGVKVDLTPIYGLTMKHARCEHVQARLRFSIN

Cytochrome P450 2C19 = Cytochrome P450 2C19 (Homo sapiens, UniProt P33261); assay: Cytochrome panel assay with activity outcomes. Panel member name: p450-cyp2c19 Compounds with AC50 equal or less than 10 uM are considered active; type: functional; settings: read-out: AC50
Cytochrome P450 2C19, sequence (P33261 whole entry): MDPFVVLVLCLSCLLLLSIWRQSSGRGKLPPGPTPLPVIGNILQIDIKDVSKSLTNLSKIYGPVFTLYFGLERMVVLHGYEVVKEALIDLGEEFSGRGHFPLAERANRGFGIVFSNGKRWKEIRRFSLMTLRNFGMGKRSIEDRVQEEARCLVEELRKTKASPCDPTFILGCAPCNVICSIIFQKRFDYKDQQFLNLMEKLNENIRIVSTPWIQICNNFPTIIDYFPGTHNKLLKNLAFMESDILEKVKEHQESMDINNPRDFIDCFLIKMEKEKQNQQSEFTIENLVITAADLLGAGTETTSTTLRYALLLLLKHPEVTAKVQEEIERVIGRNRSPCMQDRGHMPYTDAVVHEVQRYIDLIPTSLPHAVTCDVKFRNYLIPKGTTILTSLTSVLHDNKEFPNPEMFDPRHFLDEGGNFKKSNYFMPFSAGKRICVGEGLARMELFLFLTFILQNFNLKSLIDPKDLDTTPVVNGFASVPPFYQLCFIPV

[4] = C. albicans growth with fluconazole, confirmation, fluorescence, retest (AID 2467); type: functional, cell-based
[5] = NIH-3T3 fibroblast cytotoxicity, dose response, cytotoxicity control, cell-based, fluorescence, Alamar Blue, secondary assay (AID 2327); type: functional;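 also: NIH-3T3 mouse fibroblasts cultured with fluconazole at 8 µg/mL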
Streptococcus = assay: Group A Streptococcus viability loss, dose response, counter-screen for streptokinase expression inhibitor project, luminescence, BacTiterGlo (AID 1915); type: functional, organism-based;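 also: potency for reduction of bacterial viability or growth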
[6] = tested on: Streptococcus sp. 'group A'; assay: growth inhibition of control SK(-) GAS strain, dose response, counter-screen for streptokinase expression inhibitor project, luminescence, kanamycin, BacTiterGlo, confirmation (AID 1900); type: functional, organism-based
Streptokinase A = biological target: T5, Streptokinase A (Streptococcus pyogenes serotype M1, UniProt P10520); assay: S. pyogenes streptokinase expression inhibitors, potency, dose response, plasminogen activation absorbance, OD405 (AID 1914); type: functional, Streptococcus pyogenes M1 GAS;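 also: secreted streptokinase activity via plasminogen activation per viability signal from cell pellet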
T5 sequence (P10520 whole entry): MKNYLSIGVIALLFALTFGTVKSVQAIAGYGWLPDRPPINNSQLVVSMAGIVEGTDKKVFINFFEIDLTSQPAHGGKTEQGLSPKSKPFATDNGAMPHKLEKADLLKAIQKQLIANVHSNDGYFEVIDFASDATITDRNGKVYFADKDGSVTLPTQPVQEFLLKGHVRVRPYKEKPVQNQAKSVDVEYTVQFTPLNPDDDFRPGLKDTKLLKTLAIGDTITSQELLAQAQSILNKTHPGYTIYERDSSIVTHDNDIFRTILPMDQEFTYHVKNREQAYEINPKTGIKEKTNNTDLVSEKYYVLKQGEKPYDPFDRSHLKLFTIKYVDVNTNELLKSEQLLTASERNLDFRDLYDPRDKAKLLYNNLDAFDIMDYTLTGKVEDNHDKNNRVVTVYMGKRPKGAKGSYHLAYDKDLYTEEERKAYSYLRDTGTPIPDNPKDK

[7] = Luminescence Cell-Based Dose Confirmation HTS to Identify Inhibitors of Platelet Dense Granule Release. [Related pubchem assays: 1663 (Primary HTS), 1678 (Summary of Project)]; type: functional
[8] = biological target: Luciferin 4-monooxygenase (Photinus pyralis, UniProt P08659); assay: firefly luciferase enzyme inhibitors, dose response, biochemical, luminescence (AID 1891)
Luciferin 4-monooxygenase, sequence (P08659 whole entry): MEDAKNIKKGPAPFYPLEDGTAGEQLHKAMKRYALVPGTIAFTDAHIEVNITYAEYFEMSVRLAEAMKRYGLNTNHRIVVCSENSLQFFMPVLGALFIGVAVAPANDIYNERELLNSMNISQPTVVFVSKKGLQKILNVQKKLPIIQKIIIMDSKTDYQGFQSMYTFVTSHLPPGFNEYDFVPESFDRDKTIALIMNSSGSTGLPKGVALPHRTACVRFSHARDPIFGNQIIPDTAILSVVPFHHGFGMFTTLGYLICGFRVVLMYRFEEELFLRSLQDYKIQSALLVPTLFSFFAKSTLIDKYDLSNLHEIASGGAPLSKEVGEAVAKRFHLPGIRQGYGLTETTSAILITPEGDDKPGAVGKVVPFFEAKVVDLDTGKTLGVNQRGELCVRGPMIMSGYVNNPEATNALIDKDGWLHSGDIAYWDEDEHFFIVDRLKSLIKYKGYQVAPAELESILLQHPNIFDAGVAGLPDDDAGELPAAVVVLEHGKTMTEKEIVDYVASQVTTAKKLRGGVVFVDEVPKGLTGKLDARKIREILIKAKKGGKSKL

Cytochrome P450 3A4 = Cytochrome P450 3A4 (Homo sapiens, UniProt P08684);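 also: CYP3A4 tested as one member of a cytochrome P450 panel screen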
Cytochrome P450 3A4, sequence (P08684 whole entry): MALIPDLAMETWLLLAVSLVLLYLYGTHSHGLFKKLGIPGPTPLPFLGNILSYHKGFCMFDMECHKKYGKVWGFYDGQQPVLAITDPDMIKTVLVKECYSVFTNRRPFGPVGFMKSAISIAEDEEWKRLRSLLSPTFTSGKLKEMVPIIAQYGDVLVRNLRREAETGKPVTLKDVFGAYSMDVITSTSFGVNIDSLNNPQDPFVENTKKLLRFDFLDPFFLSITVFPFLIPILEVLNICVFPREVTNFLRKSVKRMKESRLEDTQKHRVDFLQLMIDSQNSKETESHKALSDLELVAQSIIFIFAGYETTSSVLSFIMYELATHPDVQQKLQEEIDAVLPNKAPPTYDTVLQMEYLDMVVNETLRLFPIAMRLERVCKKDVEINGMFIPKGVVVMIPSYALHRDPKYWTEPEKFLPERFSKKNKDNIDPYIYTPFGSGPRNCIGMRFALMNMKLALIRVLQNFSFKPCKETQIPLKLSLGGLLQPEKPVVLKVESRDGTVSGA

Structure (SMILES): N#CC1=C(N)OC2=C(C(=O)CCC2)[C@]12C(=O)N(CC(N)=O)c1ccccc12
- EC50 [1]: > 300 µM (not active)
- EC50 [2]: > 300 µM (not active)

Structure (SMILES): O=C(O)CCc1nnc(SCC(=O)Nc2ccc(Cl)c(C(F)(F)F)c2)nc1O
- IC50 (Leucine aminopeptidase): 2.82 µM (active)

Structure (SMILES): O=C(C[C@@H]1C[C@H]2c3cc(NC(=O)Nc4ccccc4)ccc3O[C@H]2[C@H](CO)O1)NCc1ccccc1
- AC50 [3]: 15.9 µM (active)

Structure (SMILES): Cc1cccc(C(=O)NCCCNC(=O)c2cccc(C)c2)c1
- EC50 [1]: > 300 µM (not active)
- EC50 [2]: > 300 µM (not active)

Structure (SMILES): CCCc1cn([C@H]2C[C@@H]3O[C@H](CO)CC[C@@H]3O[C@@H]2CCc2ccc(-c3ccc(OC)cc3)cc2)nn1
- AC50 [3]: 4.34 µM (active)

Structure (SMILES): COc1ccc2cc(/C=C3\SC(=S)NC3=O)c(N3CCOCC3)nc2c1
- IC50 (Leucine aminopeptidase): 1.76 µM (active)

Structure (SMILES): CC(/C=C1\N=C(SCc2ccccc2Cl)SC1=O)=C\c1ccccc1
- EC50 [1]: > 300 µM (not active)
- AC50 (Cytochrome P450 1A2): 4.47 µM (inconclusive)
- EC50 [2]: > 300 µM (not active)
- AC50 (Cytochrome P450 2C19): 7.08 µM (inconclusive)

Structure (SMILES): Cc1cccc(S(=O)(=O)N2CCCCN3[C@H](C2)[C@@H](c2ccc(-c4cccnc4)cc2)[C@@H]3CO)c1
- AC50 [3]: 4.88 µM (active)

Structure (SMILES): COc1ccc2c3c(n(C)c2c1)[C@H](CO)N(C(=O)c1ccccc1)CC31CCN(C(=O)c2ccccc2)CC1
- AC50 [3]: 7.29 µM (active)

Structure (SMILES): Oc1c(C(Nc2cccc(C(F)(F)F)c2)c2cccnc2)ccc2cccnc12 (stereo unspecified)
- EC50 [4]: > 38 µM (not active)
- EC50 [5]: > 150 µM (inactive)
- EC50 (Streptococcus): 15.6 µM (active)
- EC50 [6]: 1.71 µM (active)
- EC50 (Streptokinase A): > 150 µM (not active)

Structure (SMILES): Cc1ccc(S(=O)(=O)C(C#N)c2nc3ccccc3nc2N2CCN(C)CC2)cc1C (stereo unspecified)
- EC50 [4]: > 38 µM (not active)
- EC50 [5]: > 150 µM (inactive)

Structure (SMILES): CC1COc2ccccc2N1S(=O)(=O)c1ccccc1 (stereo unspecified)
- EC50 [5]: > 150 µM (inconclusive)

Structure (SMILES): Cc1sc(NC(=O)c2ccc(Br)s2)c(C(N)=O)c1C
- EC50 [4]: > 38 µM (not active)
- EC50 [5]: > 150 µM (inactive)

Structure (SMILES): N#C/C(=C/c1ccc(N2CCCC2)c([N+](=O)[O-])c1)c1nc2ccccc2[nH]1
- AC50 (Cytochrome P450 1A2): 3.55 µM (inconclusive)

Structure (SMILES): Cc1noc(C)c1S(=O)(=O)NC1CCN(Cc2ccccc2)CC1
- EC50 [1]: 35.3 µM (active)
- EC50 [2]: 49.2 µM (active)

Structure (SMILES): CSc1nnc(N2C(=O)C(O)=C(C(=O)c3ccco3)C2c2cccc(Cl)c2)s1 (stereo unspecified)
- EC50 [7]: > 112 µM (not active)
- EC50 [1]: 14.3 µM (active)
- EC50 [2]: 31.3 µM (active)
- EC50 [8]: > 112 µM (not active)

Structure (SMILES): COc1ccc(S(=O)(=O)N2CC[C@@H]3[C@H]2c2cc(-c4ccc(C#N)cc4)ccc2N[C@@H]3CO)cc1
- AC50 [3]: 9.46 µM (active)

Structure (SMILES): COc1cccc(/C=N/NC(=O)c2cc(-c3cccn3C)[nH]n2)c1O
- EC50 [4]: 2.95 µM (active)
- EC50 [5]: 23.5 µM (inconclusive)

Structure (SMILES): N#Cc1c(/N=C/C2C(=O)NC(=S)NC2=O)sc2c1CCCC2
- IC50 (Leucine aminopeptidase): 110 µM (active)

Structure (SMILES): COC(=O)c1cc2n(n1)CCN(Cc1ccccc1F)C2=O
- AC50 (Cytochrome P450 1A2): 15.8 µM (inconclusive)
- AC50 (Cytochrome P450 2C19): 5.01 µM (inconclusive)

Structure (SMILES): O=C1CCC/C1=c1\s/c(=C\c2cccnc2)c(=O)n1-c1ccccc1
- EC50 [1]: 42 µM (active)
- EC50 [2]: > 300 µM (not active)

Structure (SMILES): O=c1c(-c2cccs2)nc2cnc(Nc3ccccc3)nc2n1C[C@H]1CCCO1
- AC50 (Cytochrome P450 1A2): 2.51 µM (inconclusive)
- AC50 (Cytochrome P450 3A4): 10 µM (inconclusive)

Structure (SMILES): CS(=O)(=O)N1CCC2(CCCN(C(=O)Nc3ccccc3)C2)CC1
- AC50 (Cytochrome P450 1A2): 15.8 µM (inconclusive)

Structure (SMILES): O=C(CNS(=O)(=O)c1ccc(Br)s1)N1CCC2(CC1)OCCO2
- AC50 (Cytochrome P450 1A2): 15.8 µM (inconclusive)
- AC50 (Cytochrome P450 3A4): 25.1 µM (inconclusive)

Structure (SMILES): COc1cc2c(cc1C1C(C#N)=C(N)OC3=C1C(=O)CC(C)(C)C3)OCO2 (stereo unspecified)
- EC50 [1]: > 300 µM (not active)
- EC50 [2]: > 300 µM (not active)

Structure (SMILES): O=C(Nc1ccccc1)NC(Cc1ccc(O)cc1)C(=O)O (stereo unspecified)
- IC50 (Leucine aminopeptidase): 34.7 µM (active)

Structure (SMILES): CCCCn1c(=O)[nH]c(=O)c2c1nc(-c1ccc(-c3ccccc3Br)o1)n2CCOC
- EC50 [1]: > 300 µM (not active)
- EC50 [2]: > 300 µM (not active)

Structure (SMILES): O=C1C2CCCN2C(c2ccccc2)N1c1ccccn1 (stereo unspecified)
- EC50 [4]: > 38 µM (not active)
- EC50 [5]: > 160 µM (inactive)
